Assay results published in patent publication US8524699B2, “Substituted dihydropyrazolones and use thereof as HIF-prolyl-4-hydroxylase inhibitors” (Bayer Intellectual Property GmbH, priority 2006, dated 2013).
Counter-ions that a name gives are not always drawn.

biological target: HIF prolyl hydroxylase; assay: Inhibition of the activity of HIF prolyl hydroxylase (VBC complex binding to hydroxylated peptide substrate); assay type: biochemical; conditions: cell lysate containing prolyl hydroxylase
Procedure: Hydroxylated HIF bonds specifically to the von Hippel-Lindau protein-elongin B-elongin C complex (VBC complex). This interaction occurs only if HIF is hydroxylated on a conserved prolyl radical. It is the basis for the biochemical determination of HIF prolyl hydroxylase activity. The test is carried out as described [Oehme F., Jonghaus W., Narouz-Ott L., Huetter J., Flamme I., Anal. Biochem. 330 (1), 74-80 (2004)]:
A clear 96-well microtiter plate coated with NeutrAvidin HBC (Pierce) is incubated with blocker casein for 30 minutes. The plate is then washed three times with 200 μl each time of wash buffer (50 mM Tris, pH 7.5, 100 mM NaCl, 10% (v/v) blocker casein, 0.05% (v/v) Tween 20) per well. The peptide biotin-DLDLEMLAPYIPMDDDFQL (Eurogentec, 4102 Seraing, Belgium) is added in a concentration of 400 nM in 100 μl wash buffer. This peptide serves as a substrate for the prolyl hydroxylation and is bonded to the microtiter plate. After incubation for 60 minutes, the plate is washed three times with wash buffer, incubated with 1 mM biotin in blocker casein for 30 minutes and then washed again three times with wash buffer.
To carry out the prolyl hydroxylase reaction, the peptide substrate bonded to the plate is incubated with a cell lysate containing prolyl hydroxylase for 1 to 60 minutes. The reaction takes place in 100 μl reaction buffer (20 mM Tris, pH 7.5, 5 mM KCl, 1.5 mM MgCl2, 1 μM-1 mM 2-oxoglutarate, 10 μM FeSO4, 2 mM ascorbate) at room temperature. The reaction mixture moreover contains various concentrations of the prolyl hydroxylase inhibitor to be tested. The test substance is preferably, but not exclusively, employed at concentrations of between 1 nM and 100 μM. The reaction is stopped by washing the plate three times with wash buffer.
For quantitative determination of the prolyl hydroxylation, a fusion protein which contains both thioredoxin from E. coli and the VBC complex in 80 μl bonding buffer (50 mM Tris, pH 7.5, 120 mM NaCl) is added. After 15 minutes, 10 μl of a solution of polyclonal anti-thioredoxin antibodies from rabbit in bonding buffer are added. After a further 30 minutes, 10 μl of a solution of anti-rabbit immunoglobulin coupled to horseradish peroxidase in bonding buffer are added. After incubation at room temperature for 30 minutes, the plate is washed three times with wash buffer in order to remove non-bonded VBC complex and antibodies. To determine the amount of bonded VBC complex, the plate is incubated with TMB for 15 minutes. The color reaction is ended by addition of 100 μl 1 M sulfuric acid. The amount of bonded VBC complex is determined by measurement of the optical density at 450 nm. It is proportional to the amount of hydroxylated proline in the peptide substrate.
Alternatively, a VBC complex coupled to europium (Perkin Elmer) can be used for detection of the prolyl hydroxylation. In this case, the amount of bonded VBC complex is determined by the fluorescence with respect to time. The use of VBC complex labeled with [^35S]-methionine is moreover possible. For this, the radioactively labeled VBC complex can be prepared by in vitro transcription-translation in reticulocyte lysate.
Representative IC50 values for the embodiment examples are reproduced in the following Table 1: […]

IC50 [µM] | SMILES
1.7 | CCN(CC)CCCCCCNc1cc(-n2[nH]cc(-c3cccnc3)c2=O)ncn1 [Example 55, 2-(6-{[6-(Diethylamino)hexyl]amino}pyrimidin-4-yl)-4-pyridin-3-yl-1,2-dihydro-3H-pyrazol-3-one]
0.89 | COCCN1CCN(c2cc(-n3[nH]cc(-c4cccnc4)c3=O)ncn2)CC1 [Example 28, 2-{6-[4-(2-Methoxyethyl)piperazin-1-yl]pyrimidin-4-yl}-4-pyridin-3-yl-1,2-dihydro-3H-pyrazol-3-one dihydrochloride]
0.48 | O=c1c(-c2ccc(Cl)nc2)c[nH]n1-c1cc(N2CCOCC2)ncn1 [Example 16]
0.7 | Cc1cc(C)n(-c2cc(-n3[nH]cc(-c4cccnc4)c3=O)ncn2)n1 [Example 3]
0.93 | O=c1c(-c2cccnc2)c[nH]n1-c1cnccn1 [Example 46, 2-Pyrazin-2-yl-4-pyridin-3-yl-1,2-dihydro-3H-pyrazol-3-one hydrochloride]
0.88 | O=c1c(-c2cccnc2)c[nH]n1-c1nnc(-c2ccc(Cl)cc2)s1 [Example 7]
4 | CN(C)CCOc1cc(-n2[nH]cc(-c3cccnc3)c2=O)ncn1 [Example 26, 2-{6-[2-(Dimethylamino)ethoxy]pyrimidin-4-yl}-4-pyridin-3-yl-1,2-dihydro-3H-pyrazol-3-one hydrochloride]
2.8 | O=c1c(-c2cccnc2)c[nH]n1-c1nc2ccccc2s1 [Example 6]
2.7 | O=c1c(-c2cccnc2)c[nH]n1-c1ccc(-c2ccccc2)nn1 [Example 22, 2-(6-Phenylpyridazin-3-yl)-4-pyridin-3-yl-1,2-dihydro-3H-pyrazol-3-one hydrochloride]
1.12 | N#Cc1cncc(-c2c[nH]n(-c3cc(N4CCCCC4)ncn3)c2=O)c1 [Example 44, 5-[3-oxo-2-(6-piperidin-1-ylpyrimidin-4-yl)-2,3-dihydro-1H-pyrazol-4-yl]pyridine-3-carbonitrile hydrochloride]

SMILES | IC50 [µM]
O=c1c(-c2cccnc2)c[nH]n1-c1cc(N2CCOCC2)ncn1 [Example 18, 2-(6-Morpholin-4-yl-pyrimidin-4-yl)-4-pyridin-3-yl-1,2-dihydro-3H-pyrazol-3-one hydrochloride] | 0.18
